What is called IC50 is the concentration at which inhibition is half-maximal. A high value points to weaker potency in that assay.

Structures are written as SMILES.

For 24 compounds, IC50 results are on record in patent publication US20260166039A1 (SCHRÖDINGER, INC., priority 2022, published 2026).

For the first experiment, the target named is T1, Wee1 kinase domain (Homo sapiens, UniProt P30291).
T1 construct: Wee1 kinase domain was purchased from Carna (catalog #05-177); purchased Carna 05-177
T1 sequence (P30291 299-569 limits assumed): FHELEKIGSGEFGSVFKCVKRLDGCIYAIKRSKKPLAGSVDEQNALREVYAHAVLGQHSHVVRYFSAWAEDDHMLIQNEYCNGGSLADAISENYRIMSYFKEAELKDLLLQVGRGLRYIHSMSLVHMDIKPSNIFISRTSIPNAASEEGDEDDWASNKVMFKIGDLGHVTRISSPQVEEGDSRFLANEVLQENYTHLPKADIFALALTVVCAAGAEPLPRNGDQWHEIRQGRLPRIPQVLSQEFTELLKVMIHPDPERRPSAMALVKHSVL
Nature of the experiment: Wee1 Kinase Biochemical Assay (ADP-Glo). The conditions noted are these: Wee1 kinase domain, 15 uM ATP, ADP-Glo. An outline of the steps:
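Compounds tested against 1 nM Wee1 kinase domain in Tris buffer containing 20 mM MgCl2, BSA and 2 mM DTT, with 15 uM ATP and poly(Lys,Tyr) substrate for 4 h at 25 °C. Luminescent ADP detection gave percent inhibition, normalized to DMSO and saturating inhibitor.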
(ADP-Glo turns the ADP formed in a reaction into a luminescent signal.)
The compound `CNCc1cccc(N2c3nc(Nc4cnn(C(C)(C)C)c4)ncc3[C@]3(C)COC(C)(C)C[C@H]23)n1` (single isomer, unassigned) [Example 47] registered a 50% inhibitory concentration (IC50) of 100 to 1000 nM.
Still for that read-out and setting: the same measure for `C[C@H]1COC(=O)N1c1cccc(N2c3nc(Nc4ccc(C5CCN(C)CC5)nc4)ncc3[C@]3(C)COC(C)(C)C[C@H]23)n1` (single isomer, unassigned) [Example 296]: less than 10 nM; for `C[C@H]1COC(=O)N1c1cccc(N2c3nc(Nc4ccc(C(C)(C)C)nc4)ncc3[C@]3(C)COC(C)(C)C[C@H]23)n1` (single isomer, unassigned) [Example 300]: 100 to 1000 nM.
Same read-out and setting: the value for `CNCc1cccc(N2c3nc(Nc4ccc(C5CCN(C)CC5)c(C)c4)ncc3[C@]3(C)COC(C)(C)C[C@H]23)n1` (single isomer, unassigned) [Example 71] was 100 to 1000 nM.
Still for that read-out and setting: the same measure for `CN1CCC(n2ccc(Nc3ncc4c(n3)N(c3cccc(N=S(C)(C)=O)n3)C3CC(C)(C)OCC43C)cc2=O)CC1` (single isomer, unassigned) [Example 151]: 100 to 1000 nM; for `CC1(C)C[C@@H]2N(c3cccc(N=S(C)(C)=O)n3)c3nc(Nc4ccc(C5CNC5)c(F)c4)ncc3[C@]2(C)CO1` (single isomer, unassigned) [Example 189]: 100 to 1000 nM.
As to `CNCc1cccc(N2c3nc(Nc4ccc(C5(C)COC5)cc4)ncc3[C@]3(C)COC(C)(C)C[C@H]23)n1` (single isomer, unassigned) [Example 83], the half-maximal inhibitory concentration (IC50) was not below 1000 nM.
On the same count and under the same terms, the same measure for `C[C@H]1COC(=O)N1c1cccc(N2c3nc(Nc4ccc([C@H]5CCN(C)C5)cc4)ncc3[C@]3(C)COC(C)(C)C[C@H]23)n1` (single isomer, unassigned) [Example 307]: less than 10 nM.

Still in this experiment, the particulars now being: class symbols; 1 nM Wee1 enzyme, 15 uM ATP, 4 hours at 25° C.
As to `CN1CC2CC1CN2c1ccc(Nc2ncc3c(n2)N(c2cccc(N=S(C)(C)=O)c2)C2CC(C)(C)OCC32C)cc1` (single isomer, unassigned) [Example 711], the IC50 is 100 to 1000 nM.
The compound `CN1CC[C@@](C)(c2ccc(Nc3ncc4c(n3)N(c3cccc(N5CCOC5=O)n3)[C@H]3CC(C)(C)OC[C@@]43C)cc2)C1` [Example 671, 3-(6-((4bS,8aS)-2-((4-((S)-1,3-dimethylpyrrolidin-3-yl)phenyl)amino)-4b,7,7-trimethyl-4b,7,8,8a-tetrahydropyrano[3′,4′:4,5]pyrrolo[2,3-d]pyrimidin-9(5H)-yl)pyridin-2-yl)oxazolidin-2-one] returned an IC50 of 10 to 100 nM.
On the same count and under the same terms, the value for `CNCc1cccc(N2c3nc(Nc4ccc([C@@H]5CCNC5)cc4)ncc3[C@]3(C)COC(C)(C)C[C@H]23)n1` (single isomer, unassigned) [Example 453] was 100 to 1000 nM; that for `CN1C[C@@H]2CN(c3ccc(Nc4ncc5c(n4)N(c4cccc(C(C)(C)O)n4)[C@H]4CC(C)(C)OC[C@@]54C)cc3)C[C@@H]2C1` (single isomer, unassigned) [Example 445] was 100 to 1000 nM.
For the compound `CC1(C)C[C@H]2N(c3cccc(N=S(C)(C)=O)n3)c3nc(Nc4ccc(N5CC6(COC6)C5)cc4)ncc3[C@@]2(C)CO1` (single isomer, unassigned) [Example 508], the IC50 is less than 10 nM.
Still for that read-out and setting: the value for `CC1(C)C[C@@H]2N(c3ccc4c(n3)CCNC4)c3nc(Nc4ccc(N5CCOCC5)cc4)ncc3[C@]2(C)CO1` (single isomer, unassigned) [Example 561] was not below 1000 nM.
Still for that read-out and setting: the value for `CN1CC[C@H]2CN(c3ccc(Nc4ncc5c(n4)N(c4cccc(C(C)(C)O)n4)[C@H]4CC(C)(C)OC[C@@]54C)cc3)C[C@H]21` (single isomer, unassigned) [Example 440] was 10 to 100 nM.
On the same count and under the same terms, the value for `CC1(C)C[C@@H]2N(c3cccc(N4CCCC4=O)n3)c3nc(Nc4ccc(C5CNC5)cc4)ncc3[C@]2(C)CO1` [Example 663, 1-(6-((4bS,8aS)-2-((4-(azetidin-3-yl)phenyl)amino)-4b,7,7-trimethyl-4b,7,8,8a-tetrahydropyrano[3′,4′:4,5]pyrrolo[2,3-d]pyrimidin-9(5H)-yl)pyridin-2-yl)pyrrolidin-2-one] was 10 to 100 nM.
In the case of `CC[C@@]1(O)CCc2ccc(N3c4nc(Nc5ccc(N6C[C@H]7C[C@@H]6CN7C)cc5)ncc4[C@@]4(C)COC(C)(C)C[C@@H]34)nc21` [Example 790, (R)-7-ethyl-2-((4bR,8aR)-4b,7,7-trimethyl-2-((4-((1R,4R)-5-methyl-2,5-diazabicyclo[2.2.1]heptan-2-yl)phenyl)amino)-4b,7,8,8a-tetrahydropyrano[3′,4′:4,5]pyrrolo[2,3-d]pyrimidin-9(5H)-yl)-6,7-dihydro-5H-cyclopenta[b]pyridin-7-ol], the IC50 is less than 10 nM.
For `CN1CC[C@H](n2ccc(Nc3ncc4c(n3)N(c3cccc(N=S(C)(C)=O)n3)[C@@H]3CC(C)(C)OC[C@]43C)cc2=O)C1` [Example 805, 4-(((4bR,8aR)-9-(6-((dimethyl(oxo)-16-sulfaneylidene)amino)pyridin-2-yl)-4b,7,7-trimethyl-4b,5,7,8,8a,9-hexahydropyrano[3′,4′:4,5]pyrrolo[2,3-d]pyrimidin-2-yl)amino)-1-((S)-1-methylpyrrolidin-3-yl)pyridin-2(1H)-one], the IC50 was less than 10 nM.
Still for that read-out and setting: the same measure for `CN1[C@@H]2C[C@H]1CN(c1ccc(Nc3ncc4c(n3)N(c3cccc(N5CCCC5=O)n3)[C@H]3CC(C)(C)OC[C@@]43C)cc1)C2` [Example 704, 1-(6-((4bS,8aS)-4b,7,7-trimethyl-2-((4-((1R,5S)-6-methyl-3,6-diazabicyclo[3.1.1]heptan-3-yl)phenyl)amino)-4b,7,8,8a-tetrahydropyrano[3′,4′:4,5]pyrrolo[2,3-d]pyrimidin-9(5H)-yl)pyridin-2-yl)pyrrolidin-2-one]: 100 to 1000 nM; for `CC1(C)C[C@@H]2N(c3cccc(N4CCOC4=O)n3)c3nc(Nc4ccc(C5CNC5)cc4)ncc3[C@]2(C)CO1` [Example 667, 3-(6-((4bS,8aS)-2-((4-(azetidin-3-yl)phenyl)amino)-4b,7,7-trimethyl-4b,7,8,8a-tetrahydropyrano[3′,4′:4,5]pyrrolo[2,3-d]pyrimidin-9(5H)-yl)pyridin-2-yl)oxazolidin-2-one]: 10 to 100 nM; for `CNCc1cccc(N2c3nc(Nc4ccc(=O)n(C)c4)ncc3[C@]3(C)COC(C)(C)C[C@H]23)n1` (single isomer, unassigned) [Example 461]: not below 1000 nM.
Take `CC[C@]1(O)CCc2ccc(N3c4nc(Nc5ccc(N6C[C@H]7C[C@@H]6CN7C)cc5)ncc4[C@@]4(C)COC(C)(C)C[C@@H]34)nc21` [Example 789, (S)-7-ethyl-2-((4bR,8aR)-4b,7,7-trimethyl-2-((4-((1R,4R)-5-methyl-2,5-diazabicyclo[2.2.1]heptan-2-yl)phenyl)amino)-4b,7,8,8a-tetrahydropyrano[3′,4′:4,5]pyrrolo[2,3-d]pyrimidin-9(5H)-yl)-6,7-dihydro-5H-cyclopenta[b]pyridin-7-ol]: the half-maximal inhibitory concentration (IC50) was less than 10 nM.
The same measure, in the same setting: the same measure for `Cc1cc(Nc2ncc3c(n2)N(c2cccc([C@@H]4CCCN4)n2)[C@H]2CC(C)(C)OC[C@@]32C)ccc1N1CCOCC1` (single isomer, unassigned) [Example 530]: 10 to 100 nM; for `C[C@H]1COC(=O)N1c1cccc(N2c3nc(Nc4ccc([C@H]5CCN(C)C5)cc4)ncc3[C@@]3(C)COCC[C@@H]23)n1` [Example 793, (S)-4-methyl-3-(6-((4bR,8aR)-4b-methyl-2-((4-((R)-1-methylpyrrolidin-3-yl)phenyl)amino)-4b,7,8,8a-tetrahydropyrano[3′,4′:4,5]pyrrolo[2,3-d]pyrimidin-9(5H)-yl)pyridin-2-yl)oxazolidin-2-one]: less than 10 nM.
